Tests used:
U 373 = assay: Cytotoxicity assay (propidium iodide), U 373; type: cell-based; conditions: Homo sapiens, U373 MG; U 373 (C8a, glioblastoma); 48 hours
Experimental: (§1) Cells from cell lines as mentioned in the table given below were seeded at a density of 3000 cells/well in a white opaque 96-well plate. Following incubation at 37° C./5% CO2 for a period of 18-24 hours, the cells were treated with various concentrations (stock solution was prepared in DMSO and subsequent dilutions were made in media as per ATCC guidelines) of the representative compounds of present invention (refer table 3) for a period of 48 hours. At the end of treatment, the spent culture medium was discarded, the cells were washed with 1×PBS and 200 μl of 7 μg/ml propidium iodide was added to each well. The plates were frozen at −70° C. for at least 24 hours. For analysis, the plates were brought to RT, allowed to thaw and were read in PolarStar fluorimeter with the fluorescence setting. The percentage of viable cells in the non treated set of wells was considered to be 100 and the percentage viability following treatment was calculated accordingly. IC50 values were calculated from graphs plotted using these percentages.

RPMI 8226 = assay: Cytotoxicity assay (propidium iodide), RPMI 8226; type: cell-based; conditions: Homo sapiens; RPMI 8226 (C7b, multiple myeloma); 48 hours
Experimental: as §1

[1] = system: DSS-induced colitis in C57BL/6J mice; assay: Ulcerative colitis, DSS-induced colitis in mice; type: in vivo; conditions: 3% DSS, 10 mg/kg orally daily, day 6 to day 10
Experimental: The efficacy of compounds of the present invention on the gross pathology of colitis and proinflammatory mediators was determined by following the method described in Am. J. Physiol. Gastrointest. Liver Physiol.
C57BL/6J mice (6 weeks of age, weighing 18-22 gms) were obtained from Jackson Laboratories (Bar Harbor, Me.) and housed in individually ventilated cage (IVC) system. Colitis was induced in mice by replacing drinking water with 3% (w/v) DSS (molecular weight 35-50 kDa, ICN Biomedicals, Aurora, Ohio, US) in water. This solution was made available to the experimental animals ad libitum, from day 0 to day 10. A batch of six naive animals received water instead of DSS during this period.
DSS-induction of colitis was manifested with increase in clinical disease activity index associated with weight loss and presence of blood in feces.
The animals were weighed every day and the record of body weights was maintained. The compound of Example 25 (10 mg/kg, prepared at a concentration of 1 mg/mL in 0.5% (w/v) CMC after mixing a drop of Tween 20) was administered orally daily to the colitis induced animals. This treatment was initiated on day 6 and continued up to day 10. During this period, DSS control animals received DSS, positive control animals received 5-aminosalicylic acid (5-ASA, 25 mg/kg, p.o.) and naïve animals received 0.5% CMC once daily.
At the end of DSS treatment period, mice were humanely euthanized with 15% urethane (i.p.). The whole colon (i.e., including ceacum, proximal colon and distal colon) was excised.
The colon was macrosopically assessed by determining • a) Rectal bleeding/blood in faeces • b) Stool consistency • c) Blood in colon • d) Colon length • e) % weight loss • f) Blood hemoglobin concentration
Disease Activity Index: various features were scored as delineated in the following table.
Disease activity index is the sum of scores of all features.

Row | SMILES | IC50 (U 373) | IC50 (RPMI 8226) | DSS-induced body weight loss [1] | DSS-induced colon bleeding [1] | DSS-induced decrease in hematocrit [1] | DSS-induced disease activity index [1] | DSS-induced shortening of colon [1] | rectal bleeding index [1]
1 | Cc1ccc(F)cc1S(=O)(=O)N(C)N=Cc1cnc2ccc(-c3cccnc3)cn12 [Example 21, 5-Fluoro-N, 2-dimethyl-N′-((6-(pyridine-3-yl)imidazo[1,2-a]pyridine-3-yl)methylene) benzenesulfonohydrazide] | 10 to 5000 nM | 10 to 5000 nM | – | – | – | – | – | –
2 | Cc1ccc([N+](=O)[O-])cc1S(=O)(=O)N(C)N=Cc1cnc2ccc(-c3cccnc3)cn12 [Example 25] | – | – | attenuated | attenuated | inhibited | reduced | inhibited | improved

Source: patent US8741932B2, “Imidazopyridine derivatives” (Piramal Enterprises Limited, priority 2009, dated 2014)
